Assay results reported in patent publication US20250340911A1, “METHOD FOR PRODUCING FROM FATTY ALCOHOLS MONOMERS FOR PRODUCING VARIOUS SYNTHETIC RESINS” (priority 2022, published 2025).

System: recombinant Candida tropicalis Ct6 strain
Experiment: Cytotoxicity of synthesized (biomass-derived) dialkyl ethers to recombinant strain, growth by absorbance at 600 nm
Type: cell-based
Settings: 0-5% ether in YPD medium, 48-well plate, 24 hours or more, ether synthesized in Example 1
Experimental: The cytotoxicity of the dioctyl ether synthesized as described above was analyzed. 200 μl of a mixed solution of YPD medium (10 g/L yeast extract, 20 g/L Bacto peptone, 20 g/L glucose) and each concentration (0, 0.25, 0.5, 1, 2, 3, 4, or 5%) of dioctyl ether was added to each well of a 48-well plate. After 2 μl of a culture of a recombinant Candida tropicalis Ct6 strain cultured overnight in YPD medium at 30° C. and 200 rpm was further added to each well, the absorbance at 600 nm was measured using a plate reader at 30° C. for 24 hours or more at 15-minute intervals. The maximum specific growth rate (μm) and lag time were calculated using the Gompertz growth equation.
The cytotoxicity of the didodecyl ether synthesized as described above was analyzed. 200 μl of a mixed solution of YPD medium and each concentration (0, 0.25, 0.5, 1, 2, 3, 4, or 5%) of didodecyl ether was added to each well of a 48-well plate. After 2 μl of a culture of a recombinant Candida tropicalis Ct6 strain cultured overnight in YPD medium at 30° C. and 200 rpm was further added to each well, the absorbance at 600 nm was measured using a plate reader at 33° C. for 24 hours or more at 15-minute intervals. The maximum specific growth rate and lag time were calculated using the Gompertz growth equation.

Row | SMILES | cytotoxicity (maximum specific growth rate and lag time, Gompertz growth equation)
1 | CCCCCCCCCCCCOCCCCCCCCCCCC [Didodecyl ether, didodecyl ether] | almost no cytotoxicity
2 | CCCCCCCCOCCCCCCCC [Dioctyl ether, dioctyl ether] | almost no cytotoxicity
